Experimental data as given in patent US6022696A, “Methods of identifying agonists or antagonists of angiotensin IV” (Washington State University Research Foundation, priority 1998, dated 2000).
pKd, pKi: −log10 of the molar value. Entries after “also recorded” stand apart in the source; their conditions may differ. Read-outs that look alike come from different tables or passages of the source. Non-standard residues stand in square brackets, D forms with d. Residues, ends and D or L forms follow the SMILES beside them. No end group written: not given here. NMeI = CC[C@H](C)[C@H](NC)C(=O)O

Tests used:
[1] = Stability of angiotensin peptides in binding assay buffer / assay conditions; assay type: physicochemical
AT1 receptor = target: T1, AT1 receptor (Bos taurus, UniProt P25104); assay type: binding, bovine
T1 construct: from tissue; host or cells: bovine adrenal cortex membranes
T1 sequence (P25104 1-359): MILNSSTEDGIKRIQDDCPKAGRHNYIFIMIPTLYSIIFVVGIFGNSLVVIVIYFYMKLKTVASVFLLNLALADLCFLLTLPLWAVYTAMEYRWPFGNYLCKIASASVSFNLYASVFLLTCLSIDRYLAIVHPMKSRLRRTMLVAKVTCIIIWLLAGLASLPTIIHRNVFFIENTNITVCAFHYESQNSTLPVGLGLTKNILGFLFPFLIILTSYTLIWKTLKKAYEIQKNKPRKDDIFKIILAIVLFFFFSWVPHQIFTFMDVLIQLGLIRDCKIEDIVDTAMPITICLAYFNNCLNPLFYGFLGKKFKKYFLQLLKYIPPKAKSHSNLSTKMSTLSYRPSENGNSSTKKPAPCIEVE

[2] = arterial and venous blood in man; cited from earlier work
AT4 receptor [3] = target: T2, AT4 receptor (Bos taurus, UniProt F1N1Q8); test: 125I-AIV binding and competition, bovine coronary venular endothelial cell (CVEC) membranes
T2 sequence (F1N1Q8 1-1022): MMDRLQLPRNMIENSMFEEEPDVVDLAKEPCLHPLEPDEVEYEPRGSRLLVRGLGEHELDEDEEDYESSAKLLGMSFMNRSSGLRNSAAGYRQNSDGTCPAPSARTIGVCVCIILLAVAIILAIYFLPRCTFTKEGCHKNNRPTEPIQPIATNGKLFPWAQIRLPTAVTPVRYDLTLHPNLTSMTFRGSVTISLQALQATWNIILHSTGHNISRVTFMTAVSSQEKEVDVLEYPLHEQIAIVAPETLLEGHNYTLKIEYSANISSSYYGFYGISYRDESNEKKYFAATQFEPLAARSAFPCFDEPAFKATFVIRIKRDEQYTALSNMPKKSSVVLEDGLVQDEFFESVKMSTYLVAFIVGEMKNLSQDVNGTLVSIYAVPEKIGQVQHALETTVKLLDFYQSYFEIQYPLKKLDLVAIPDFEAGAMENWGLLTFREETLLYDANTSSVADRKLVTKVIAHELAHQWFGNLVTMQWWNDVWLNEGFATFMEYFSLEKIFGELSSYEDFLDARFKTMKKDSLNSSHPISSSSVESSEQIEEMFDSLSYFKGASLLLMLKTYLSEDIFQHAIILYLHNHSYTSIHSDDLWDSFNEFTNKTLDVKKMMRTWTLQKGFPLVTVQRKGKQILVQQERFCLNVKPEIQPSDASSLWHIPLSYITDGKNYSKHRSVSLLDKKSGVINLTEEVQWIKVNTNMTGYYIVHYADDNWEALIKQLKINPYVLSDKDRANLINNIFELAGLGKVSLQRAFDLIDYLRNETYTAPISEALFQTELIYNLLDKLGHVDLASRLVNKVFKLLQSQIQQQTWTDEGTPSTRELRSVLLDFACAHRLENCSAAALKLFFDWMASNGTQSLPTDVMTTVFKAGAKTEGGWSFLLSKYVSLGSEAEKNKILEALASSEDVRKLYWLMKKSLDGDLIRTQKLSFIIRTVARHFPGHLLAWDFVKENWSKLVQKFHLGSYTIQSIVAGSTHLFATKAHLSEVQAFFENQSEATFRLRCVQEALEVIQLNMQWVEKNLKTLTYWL

AT4 receptor [4] = target: T2, AT4 receptor; test: 125I-AIV binding and competition, bovine adrenal cortical membranes
rat kidney = test: Renal cortical blood flow (laser doppler) after infusion into the renal artery; assay type: in vivo
[5] = system: vascular endothelial cells; test: EDRF production in vascular endothelial cells; assay type: cell-based
Experimental: Bovine aortic endothelial cells were grown at 37° C. in 35 mm culture plates under 5% CO2 in air in Dulbecco's Modified Eagle's Medium (DMEM) supplemented with 5 μg/ml insulin and 10% (v/v) newborn bovine serum (NBBS). The medium was aspirated 10-12 hours after seeding and replaced with serum-free medium. The medium was again aspirated 10-12 hours later and replaced with either test or control medium. Control medium was DMEM with 5 µg/ml insulin and 2%, 5%, or 10% (v/v) NBBS as indicated. […] The medium was changed every 48 h (i.e., with supportive DMEM medium for the remainder of the experiment).

rat = test: Systemic arterial blood pressure during renal artery infusion
[6] = assay type: in vitro ADME, rat; details: for metabolic stability, in words: rat kidney membranes / homogenates
AT4 receptor [7] = target: T2, AT4 receptor; test: 125I-AIV binding, bovine aortic endothelial cell (BAEC) membranes; details: BAEC membranes preincubated 60 min at 22° C.
AT1 receptors = target: T3, AT1 receptors (Rattus norvegicus, UniProt P25095); test: Effect of GTPγS on 125I-AII binding, rat vascular smooth muscle cell (RVSMC) membranes; details: dose-dependent
T3 construct: membrane fractions from rat vascular smooth muscle cells (RVSMC); endogenous in cells; host or cells: rat vascular smooth muscle cell line WKY IV, passage #17, membrane preparation
T3 sequence (P25095 1-359): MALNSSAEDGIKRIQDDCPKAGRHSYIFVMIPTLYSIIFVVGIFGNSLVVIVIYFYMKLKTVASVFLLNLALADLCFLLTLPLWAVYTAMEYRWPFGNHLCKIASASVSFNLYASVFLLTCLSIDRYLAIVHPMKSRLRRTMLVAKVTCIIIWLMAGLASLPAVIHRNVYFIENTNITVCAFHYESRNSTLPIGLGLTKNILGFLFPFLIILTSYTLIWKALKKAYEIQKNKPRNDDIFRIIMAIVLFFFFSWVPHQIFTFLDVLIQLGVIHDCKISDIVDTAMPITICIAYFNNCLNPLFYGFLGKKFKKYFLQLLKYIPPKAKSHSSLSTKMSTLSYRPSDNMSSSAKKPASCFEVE

[8] = bovine adrenal cortical AT4 receptor

125I-AII: 125I-radiolabeled AII (DRVYIHPF; also: 125I radiolabel; UniProt P01019 25-32, looked up)
overall hydrolysis under conditions of the assay ([1]; bovine adrenal cortical membrane binding assay): less than 2%

CC[C@H](C)[C@H](NC(=O)[C@@H](N)Cc1ccc(O)cc1)C(=O)N[C@@H](Cc1cnc[nH]1)C(=O)N1CCC[C@H]1C(=O)N[C@@H](Cc1ccccc1)C(=O)O [AII(4-8)] (H-YIHPF-OH)
pKi (AT1 receptor): < 6.00 | half-life [2]: 2.4 min

CC[C@H](C)[C@H](NC(=O)[C@H](Cc1ccc(O)cc1)NC(=O)[C@@H](NC(=O)[C@H](CCCNC(=N)N)NC(=O)[C@@H](N)CC(=O)O)C(C)C)C(=O)N[C@@H](Cc1cnc[nH]1)C(=O)N1CCC[C@H]1C(=O)N[C@@H](Cc1ccccc1)C(=O)O [AII, Asp1 Arg2 Val3 Tyr4 Ile5 His6 Pro7 Phe8, reference compound]
half-life [2]: 4.4 min

CC[C@H](C)[C@H](NC(=O)[C@H](Cc1ccc(O)cc1)NC(=O)[C@@H](NC(=O)[C@@H](N)CCCNC(=N)N)C(C)C)C(=O)N[C@@H](Cc1c[nH]cn1)C(=O)N1CCC[C@H]1C(=O)N[C@@H](Cc1ccccc1)C(=O)O [AIII, Arg1 Val2 Tyr3 Ile4 His5 Pro6 Phe7, reference compound]
increase in Ki over AIV (AT4 receptor [3]): 20 fold | decrease in AT4 receptor binding affinity relative to AIV (or stated parent peptide) (AT4 receptor [4]; [8]): about 52 fold | hydrolysis in binding buffer ([1]; 4 h at 37° C., reverse phase HPLC): less than 10% | half-life [2]: 2.0 min

CC[C@H](C)[C@H](NC(=O)[C@H](Cc1ccc(O)cc1)NC(=O)[C@@H](N)C(C)C)C(=O)N[C@@H](Cc1cnc[nH]1)C(=O)N1CCC[C@H]1C(=O)N[C@@H](Cc1ccccc1)C(=O)O [AIV, Val1 Tyr2 Ile3 His4 Pro5 Phe6]
change in renal cortical blood flow, in words (rat kidney; infusion into rat renal artery, 100 pmol/min where stated): profound and long-lasting increase in blood flow; also recorded: equally dramatic increase in flow | agonist / antagonist activity at the AT4 receptor (rat kidney; judged from renal blood flow response compared with AIV): full agonistic activity | effect of preinfusion on agonist-induced change in renal blood flow (rat kidney; preinfusion before the named agonist): completely blocked the constrictive action of AII | production of endothelial cell relaxing factor (EDRF) [5]: stimulating production of endothelial cell relaxing factor (EDRF) | effect on arterial blood pressure (rat): not accompanied by alterations in mean arterial pressure | metabolic stability, in words [6]: rapidly degraded | half-life [2]: 1.9 min

CC[C@H](C)[C@H](NC)C(=O)N[C@@H](Cc1ccc(O)cc1)C(=O)N[C@H](C(=O)N[C@@H](Cc1c[nH]cn1)C(=O)N1CCC[C@H]1C(=O)N[C@@H](Cc1ccccc1)C(=O)O)[C@@H](C)CC [CH3--I1 YIHPF] (H-[NMeI]YIHPF-OH)
decrease in AT4 receptor binding affinity relative to AIV (or stated parent peptide) (AT4 receptor [4]; [8]): 67 fold

CC[C@H](C)[C@H](NC(=O)[C@H](Cc1ccc(O)cc1)NC(=O)[C@@H](N)CC(=O)O)C(=O)N[C@@H](Cc1c[nH]cn1)C(=O)N1CCC[C@H]1C(=O)N[C@@H](Cc1ccccc1)C(=O)O [DYIHPF] (H-DYIHPF-OH)
pKd (AT4 receptor [4]; read-out: Kd of analog for the AT4 receptor): < 6.00

Nc1nc2c(ncn2[C@@H]2O[C@H](COP(=O)(O)OP(=O)(O)OP(O)(O)=S)[C@@H](O)[C@H]2O)c(=O)[nH]1 [GTPγS]
effect on 125I-AIV binding to AT4 receptors (AT4 receptor [7]): no effect; also recorded: did not inhibit (or alter) binding | effect on 125I-AIV binding to AT4 receptors (AT4 receptor [4]): not altered | effect on 125I-AII binding to AT1 receptors (AT1 receptors): inhibited

CC(C)[C@H](N)CN[C@@H](Cc1ccc(O)cc1)C(=O)N[C@H](CN[C@@H](Cc1c[nH]cn1)C(=O)N1CCC[C@H]1C(=O)N[C@@H](Cc1ccccc1)C(=O)O)C(C)C [Val1 Val3 AIV, ^+ H3 N-Val(CH2 NH)Tyr-Val(CH2 NH)-His-Pro-Phe-COO--]
effect on arterial blood pressure (rat): did not alter blood pressure or renal blood flow | metabolic stability, in words ([6]; listed as Val(I)Val(3) AIV): totally resistant to enzymatic degradation | metabolic stability, in words ([6]; listed as divalinal AIV): enhanced metabolic stability | peptide remaining intact ([6]; rat kidney membranes, room temperature, after 4 hr of incubation): 100%

CGP42112A [reference compound]
pKi (AT1 receptor; bovine adrenal cortical membranes): < 4.00

Phe2 Tyr6 AIV: positions of Phe and Tyr reversed, SEQ. ID. NO. 36 (VPIHYF)
AT4 receptor binding affinity, in words (AT4 receptor [4]; [8]): very low binding affinity
